One compound from US12527833B2, “Pharmaceutical composition made from hydrophobic phytochemicals dispersed in sesame oil to enhance bioactivity” (ARJUNA NATURAL PVT. LTD., priority 2017, dated 2026) can be followed below.

Test [1] deals with Carrageenan induced paw edema. The test is described as follows: Carrageenan paw edema in rats: blends of Boswellia extract with edible oils (Example 7). In kind it is in vivo. On the procedure:
The animals were housed in polypropylene cages and maintained under standard animal house conditions (12:12 hour light/dark cycle at 24±2° C. and 45-65% relative humidity). The rats had free access to standard pellet diet and water. 24 rats were divided into 8 groups comprising of 3 rats in each group. The rats were deprived of food, but had free access to drinking water for 12 h prior to the experiment. The treatment was as follows: After 12 hour fasting, baseline paw volume was recorded for each rat using digital plethysmometer (Ugo Basile, […]). Carrageenan (0.1 ml of 1%) in saline (0.9% NaCl) was injected into the plantar surface of the right hind paw of the animals. The experimental groups were given the designated extract/standard orally, 30 minutes prior to the injection of the carrageenan. After injection of carrageenan, paw volume was recorded at 3 hr. to 6 hr. post carrageenan. The edema was expressed as an increase in the volume of paw from baseline value, and the percentage of inhibition for each rat was calculated. Each composition of boswellia was obtained through standard mixing of boswellia extract with vegetable oil. • Group 1: 10 mg/Kg Diclofenac. • Group 2: 82 mg/Kg Hydrophobic blend of Boswellia extract (10% AKBA) with sesame oil (2:3). • Group 3: 82 mg/Kg Hydrophobic Boswellia extract (10% AKBA) with coconut oil (2:3). • Group 4: 82 mg/Kg Hydrophobic Boswellia extract (10% AKBA) with olive oil (2:3). • Group 5: 82 mg/Kg Hydrophobic Boswellia extract (10% AKBA) with rice bran (2:3). • Group 6: 82 mg/Kg Hydrophobic Boswellia extract (10% AKBA) with Cotton seed oil (2:3). • Group 7: 82 mg/Kg Hydrophobic Boswellia extract (10% AKBA) with Boswellia fat (2:3). • Group 8: 50 mg/Kg Homogenized dispersion hydrophobic Boswellia extract with 10% AKBA with sesame oil with 10% sesame lignans. (BS-4).
Background: In the carrageenan paw model, swelling and tenderness develop within hours.

For test [2], the system named is Carrageenan induced paw oedema. The test is described as follows: Carrageenan paw oedema in rats: Boswellia extract, sesame oil and their combinations (Example 8). In kind it is in vivo. The procedure: The animals were housed in polypropylene cages and maintained under standard animal house conditions (12:12 hour light/dark cycle at 24±2° C. and 45-65% relative humidity). The rats had free access to standard pellet diet and water. […] were divided into 9 groups comprising of 3 rats in each group. The rats were deprived of food, but had free access to drinking water for 12 h prior to the experiment. The treatment was as follows: • Group 1: Untreated control. • Group 2: 10 mg/Kg Diclofenac. • Group 3: 20 mg/Kg Hydrophobic Boswellia extract with 2% AKBA (made as per example 2). • Group 4: 20 mg/Kg Hydrophobic Boswellia extract with 10% AKBA (made as per example 1). • Group 5: 30 mg/Kg Sesame seed oil about 0.9% sesame lignans. • Group 6: 50 mg/Kg Simple blend of Boswellia extract with 2% AKBA with Sesame seed oil with 10% sesame lignans (made as per example 6; using AKBA2). • Group 7: 50 mg/Kg Homogenized dispersion of hydrophobic Boswellia extract with 2% AKBA with sesame oil with 10% sesame lignans. (Made as per example 4). • Group 8: 50 mg/Kg Simple hydrophobic Boswellia extract with 10% AKBA with sesame oil with 10% sesame lignans. (Made as per example 6, F1). • Group 9: 50 mg/Kg Homogenized dispersion hydrophobic Boswellia extract with 10% AKBA with sesame oil with 10% sesame lignans. (Made as per example 4). After 12 hour fasting, baseline paw volume was recorded for each rat using digital plethysmometer (Ugo Basile, […]). Carrageenan (0.1 ml of 1%) in saline (0.9% NaCl) was injected into the plantar surface of the right hind paw of the animals. The experimental groups were given the designated extract/standard orally, 30 minutes prior to the injection of the carrageenan. […] The oedema was expressed as an increase in the volume of paw from baseline value, and the percentage of inhibition for each rat was calculated.

`O=C(O)Cc1ccccc1Nc1c(Cl)cccc1Cl` [Diclofenac] registered an Avrage percentage inhibition in test [1] (average of 3HR and 6HR, doses as in table) of 68.3%. In addition, in test [1] (paw edema 3 hr post carrageenan, oral 30 min before, Diclofenac 10, oil blends 82, BS-4 50 mg/kg), the “Percentage inhibition (%) 3HR” value was 66.67%. Moreover, in test [1] (paw edema 6 hr post carrageenan, oral 30 min before, Diclofenac 10, oil blends 82, BS-4 50 mg/kg), the “Percentage inhibition (%) 6HR” value amounted to 69.94%. Further, in test [2] (1 h post carrageenan, oral, dose per group 10-50 mg/Kg), the “percentage inhibition 1 h” value is listed as 64%. The “percentage inhibition 3 h” value in test [2] (3 h post carrageenan, oral, dose per group 10-50 mg/Kg) came to 84%. Moreover, in test [2] (5 h post carrageenan, oral, dose per group 10-50 mg/Kg), the “percentage inhibition 5 h” value is recorded as 93%. Further, the “percentage inhibition 6 h” value in test [2] (6 h post carrageenan, oral, dose per group 10-50 mg/Kg) stood at 97%. Further, in test [2] (average of 1, 3, 5, 6 h), the Average percentage inhibition is given as 85%.
